Test results published in publication PMC3850452, “Glycolic acid production in the engineered yeasts Saccharomyces cerevisiae and Kluyveromyces lactis” (Microbial Cell Factories, 2013).

T1: GLYR1 (Arabidopsis thaliana, UniProt Q9LSV0)
T1 construct: full-length gene codon optimised for yeast, TPI1 promoter multicopy plasmid (p2159/pYX212), expressed in S. cerevisiae; crude cell extract, no tag told
T1 sequence (Q9LSV0 1-289): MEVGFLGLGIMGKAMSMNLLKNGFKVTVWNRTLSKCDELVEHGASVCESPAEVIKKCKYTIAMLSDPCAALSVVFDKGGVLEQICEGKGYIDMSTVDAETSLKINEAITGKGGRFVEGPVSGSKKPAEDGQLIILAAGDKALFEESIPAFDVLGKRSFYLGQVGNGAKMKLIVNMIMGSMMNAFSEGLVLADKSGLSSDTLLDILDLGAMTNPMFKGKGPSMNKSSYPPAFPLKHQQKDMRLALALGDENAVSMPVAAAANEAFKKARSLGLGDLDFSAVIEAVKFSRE


Legend:
GLYR1 = target: T1, GLYR1; test: NADPH consumption at […] nm, Michaelis-Menten fit; format: biochemical; conditions: crude extract of overexpressing yeast; 200 μM NADPH; 50 mM sodium phosphate pH 7; 30 °C
[1] = substrate: O=CC(=O)O; test: cells, lysate or membranes; format: biochemical, Saccharomyces cerevisiae; conditions: crude extract of overexpressing yeast, 200 μM NADPH, 50 mM sodium phosphate pH 7, 30 °C

| Km (GLYR1) [µM] | Molecule | Km [1] [µM] |
| --- | --- | --- |
| 38.8 | O=CC(=O)O [glyoxylic acid] | – |
| – | Gor1p (Saccharomyces cerevisiae S288C) (protein, endogenous gene overexpressed from multicopy plasmid in S. cerevisiae; crude cell extract, no tag told) MSKKPIVLKLGKDAFGDQAWGELEKIADVITIPESTTREQFLREVKDPQNKLSQVQVITRTARSVKNTGRFDEELALALPSSVVAVCHTGAGYDQIDVEPFKKRHIQVANVPDLVSNATADTHVFLLLGALRNFGIGNRRLIEGNWPEAGPACGSPFGYDPEGKTVGILGLGRIGRCILERLKPFGFENFIYHNRHQLPSEEEHGCEYVGFEEFLKRSDIVSVNVPLNHNTHHLINAETIEKMKDGVVIVNTARGAVIDEQAMTDALRSGKIRSAGLDVFEYEPKISKELLSMSQVLGLPHMGTHSVETRKKMEELVVENAKNVILTGKVLTIVPELQNEDWPNESKPLV | 1900 |
